Reference: patent publication US10782293B2, “Compositions and methods” (priority 2015, dated 2020)
Where two headings read alike, the source gives them in different places.

Tests used:
[1] = system: antibodies in serum of cattle infected with M. avium paratuberculosis (MAP); assay type: binding; conditions: serum 1:20, IgG Fc secondary antibody, average of four replicates
[2] = system: antibodies in serum of cattle infected with bovine M. tuberculosis (B tb); test: ELISA assay of antibody binding to antigen, serum of cattle naturally infected with bovine TB
Experimental: The binding of antibodies in serum of cattle infected with M. tuberculosis or M. avium with the antigens detailed in example 3 was measured in an ELISA assay.
ELISA assays were carried out as known to those practiced in the art using 96 well plates. In the first procedure, the ELISA assay was carried out on 96-well microplates and the purified antigens were dissolved in n-hexane at a concentration of 62.5 μg/ml. The antigen solutions were diluted and 50 μl and placed in each well. The plates were left to dry at room temperature overnight. Blocking was done with 0.5% casein/PBS (400 μl/well) and the plates are left to incubate at 25° C. for 1 h. The casein was aspirated using the LT-3500 plate washer and the plates flicked dry. Then the serum (1:20 dilution in 0.5% casein/PBS, pH 7.4) was added to the plate (50 μl/well) and left to incubate at 25° C. for 1 h. The serum was aspirated and washed three times with (casein/PBS, 400 μl/well) using the same plate washer and the plates were flicked dry again. After that, the secondary antibody, in the example given IgG Fc (1:1000 dilution in 0.5% casein/PBS) was added to the plate (50 μl/well) and the plates were left to incubate at 25° C. for 30 min. The plates were washed three times again with (casein/PBS, 400 μl/well) and dried. Then, the OPD substrate was added to the plates, which were left to incubate at 25° C. for 30 min. Finally, 2.5 M H2SO4 (50 μl/well) was added and the absorbances of each well were read at 492, 450 and 630 nm using an LT-4000 plate reader.
Serum used in this work was obtained from cattle infected with MAP, diagnosed as naturally infected with bovine TB, or known not to be infected using standard assays.
All measurements were taken as four replicates unless otherwise stated. These were averaged to provide the data in the table which are optical density measurements at 492 nm.

[3] = system: antibodies in serum of cattle known not to be infected; assay type: binding
[4] = serum MAP (experimentally infected)
[5] = VLA (Naturally infected) bovis serum sample 1
[6] = VLA (Naturally infected) bovis serum sample 2
[7] = VLA (Naturally infected) bovis serum sample 3
[8] = VLA (Naturally infected) bovis serum sample 4
[9] = VLA (Naturally infected) bovis serum sample 5
[10] = VLA (Naturally infected) bovis serum sample 6
[11] = VLA (Naturally infected) bovis serum sample 7
[12] = VLA (Naturally infected) bovis serum sample 8
[13] = VLA (Naturally infected) bovis serum sample 9
[14] = VLA (Naturally infected) bovis serum sample 10
[15] = VLA (Naturally infected) bovis serum sample 11
[16] = VLA (Naturally infected) bovis serum sample 12
[17] = VLA (Naturally infected) bovis serum sample 13
[18] = VLA (Naturally infected) bovis serum sample 14
[19] = VLA (Naturally infected) bovis serum sample 15
[20] = VLA (Naturally infected) bovis serum sample 16
[21] = VLA (Naturally infected) bovis serum sample 17
[22] = VLA (Naturally infected) bovis serum sample 18
[23] = VLA (Naturally infected) bovis serum sample 19
[24] = VLA (Naturally infected) bovis serum sample 20
[25] = VLA (Non-vaccinates) serum sample 21
[26] = VLA (Non-vaccinates) serum sample 22
[27] = VLA (Non-vaccinates) serum sample 23
[28] = VLA (Non-vaccinates) serum sample 24
[29] = VLA (Non-vaccinates) serum sample 25
[30] = VLA (Non-vaccinates) serum sample 26
[31] = VLA (Non-vaccinates) serum sample 27
[32] = VLA (Non-vaccinates) serum sample 28
[33] = VLA (Non-vaccinates) serum sample 29
[34] = VLA (Non-vaccinates) serum sample 30
[35] = VLA (Non-vaccinates) serum sample 31
[36] = VLA (Non-vaccinates) serum sample 32
[37] = VLA (Non-vaccinates) serum sample 33
[38] = VLA (Non-vaccinates) serum sample 34
[39] = VLA (Non-vaccinates) serum sample 35
[40] = VLA (Non-vaccinates) serum sample 36

SMILES | optical density measurements at 492 nm ([1]; serum MAP (Naturally infected)) | optical density measurements at 492 nm [1, 4] | optical density measurements at 492 nm [2, 5] | optical density measurements at 492 nm [2, 6] | optical density measurements at 492 nm [2, 7] | optical density measurements at 492 nm [2, 8] | optical density measurements at 492 nm [2, 9] | optical density measurements at 492 nm [2, 10] | optical density measurements at 492 nm [2, 11] | optical density measurements at 492 nm [2, 12] | optical density measurements at 492 nm [2, 13] | optical density measurements at 492 nm [2, 14] | optical density measurements at 492 nm [2, 15] | optical density measurements at 492 nm [2, 16] | optical density measurements at 492 nm [2, 17] | optical density measurements at 492 nm [2, 18] | optical density measurements at 492 nm [2, 19] | optical density measurements at 492 nm [2, 20] | optical density measurements at 492 nm [2, 21] | optical density measurements at 492 nm [2, 22] | other results
CCCCCCCCCCCCCCCCCCCCCC[C@@H](C(=O)OCC1OC(OC2OC(COC(=O)[C@H](CCCCCCCCCCCCCCCCCCCCCC)[C@H](O)CCCCCCCCCCCCCCCC[C@H]3C[C@@H]3[C@@H](C)CCCCCCCCCCCCCCCCCCC(=O)O[C@@H](C)CCCCCCCCCCCCCCCCCC)C(O)C(O)C2O)C(O)C(O)C1O)[C@H](O)CCCCCCCCCCCCCCCC[C@H]1C[C@@H]1[C@@H](C)CCCCCCCCCCCCCCCCCCC(=O)O[C@@H](C)CCCCCCCCCCCCCCCCCC (stereo partly shown) [Antigen F] | 4.00 | 1.44 | 1.07 | 0.67 | 2.47 | 0.67 | 0.29 | 0.18 | 0.51 | 2.23 | 0.18 | 0.24 | 0.31 | 1.08 | 0.66 | 0.23 | 0.12 | 0.62 | 0.47 | 0.52 | optical density measurements at 492 nm [2, 23]: 0.69; optical density measurements at 492 nm [2, 24]: 1.08; optical density measurements at 492 nm [3, 25]: 0.25; optical density measurements at 492 nm [3, 26]: 0.25; optical density measurements at 492 nm [3, 27]: 0.17; optical density measurements at 492 nm [3, 28]: 0.21; optical density measurements at 492 nm [3, 29]: 0.15; optical density measurements at 492 nm [3, 30]: 3.66; optical density measurements at 492 nm [3, 31]: 1.96; optical density measurements at 492 nm [3, 32]: 0.36; optical density measurements at 492 nm [3, 33]: 0.29; optical density measurements at 492 nm [3, 34]: 0.26; optical density measurements at 492 nm [3, 35]: 0.45; optical density measurements at 492 nm [3, 36]: 0.06; optical density measurements at 492 nm [3, 37]: 0.08; optical density measurements at 492 nm [3, 38]: 0.11; optical density measurements at 492 nm [3, 39]: 0.31; optical density measurements at 492 nm [3, 40]: 0.12
CCCCCCCCCCCCCCCCCCCCCC[C@@H](C(=O)OCC1OC(OC2OC(CO)C(O)C(O)C2O)C(O)C(O)C1O)[C@H](O)CCCCCCCCCCCCCCCC[C@H]1C[C@@H]1[C@@H](C)CCCCCCCCCCCCCCCCCCC(=O)O[C@@H](C)CCCCCCCCCCCCCCCCCC (stereo partly shown) [Antigen G] | 4.38 | 4.38 | 3.68 | 2.78 | 4.06 | 0.63 | 1.04 | 0.88 | 2.34 | 1.39 | 0.40 | 0.52 | 1.63 | 1.54 | 0.26 | 0.22 | 0.15 | 0.15 | 0.11 | 0.27 | optical density measurements at 492 nm [2, 23]: 0.11; optical density measurements at 492 nm [2, 24]: 1.54; optical density measurements at 492 nm [3, 25]: 0.37; optical density measurements at 492 nm [3, 26]: 0.14; optical density measurements at 492 nm [3, 27]: 0.24; optical density measurements at 492 nm [3, 28]: 0.51; optical density measurements at 492 nm [3, 29]: 0.27; optical density measurements at 492 nm [3, 30]: 0.82; optical density measurements at 492 nm [3, 31]: 0.55; optical density measurements at 492 nm [3, 32]: 0.46; optical density measurements at 492 nm [3, 33]: 1.58; optical density measurements at 492 nm [3, 34]: 0.16; optical density measurements at 492 nm [3, 35]: 1.99; optical density measurements at 492 nm [3, 36]: 0.06; optical density measurements at 492 nm [3, 37]: 0.10; optical density measurements at 492 nm [3, 38]: 0.07; optical density measurements at 492 nm [3, 39]: 0.07; optical density measurements at 492 nm [3, 40]: 0.07
